Our source for the Ki values is patent US8097637B2, “Benzoyl-piperidine derivatives as dual modulators of the 5-HT2A and D3 receptors” (Hoffmann-La Roche Inc., priority 2007, dated 2012).

For assay [1], the target named is T1, human 5-HT2A serotonin receptor (Homo sapiens, UniProt P28223).
T1 construct: expressed in transfected cells; host or cells: HEK-293 EBNA cells, transient transfection; membrane preparation
As to the kind of experiment: Radioligand binding ([3H]-ketanserin) to cloned human 5-HT2A receptor, HEK-293 EBNA cell membranes. The following applies: 1.1 nM [3H]-ketanserin, 1 h at RT, Cheng-Prusoff. As to the method:
(§1) Membrane Preparation for Human D2, Human D3 and Human 5-HT2A Receptors
(§2) The cells were harvested 48 h post-transfection, washed three times with cold PBS and stored at −80° C. prior to use. The pellet was suspended in cold 50 mM Tris-HCl buffer containing 10 mM EDTA (pH 7.4) and homogenized with a Polytron (Kinematica AG, Basel, Switzerland) for 20-30 sec at 12.000 rpm. After centrifugation at 48.000×g for 30 min at 4° C., the pellet was resuspended in cold 10 mM Tris-HCl buffer containing 0.1 mM EDTA (pH 7.4), homogenized, and centrifuged as above. This pellet was further resuspended in a smaller volume of ice cold 10 mM Tris-HCl buffer containing 0.1 mM EDTA (pH 7.4) and homogenized with a Polytron for 20-30 sec at 12.000 rpm. The protein content of this homogenate was determined with the Bio-Rad (Bradford) Protein Assay (Biorad Laboratories GmbH, München, Germany) according to the instructions of the manufacturer using gamma globulin as the standard. This homogenate was stored at −80° C. in aliquots and thawed immediately prior to use.
(§3) Radioligand Binding Assay Conditions
(§4) Aliquots of membrane preparations were thawed at RT, resuspended in assay buffer (D2, D3: 50 mM Tris-HCl, 120 mM NaCl, 5 mM MgCl2, 1 mM EDTA, 5 mM KCl, 1.5 mM CaCl2, pH=7.4; 5-HT2A: 50 mM Tris-HCl, 10 mM MgCl2, 1 mM EGTA, pH=7.4), homogenized with a Polytron for 20-30 sec at 12.000 rpm and adjusted to a final concentration of approximately 7.5 μg protein/well (D2, D3) and 15 μg protein/well (5-HT2A), respectively.
The binding affinity (Ki) of the compounds was determined using radioligand binding. […] The nonspecific binding was determined with equally composed reaction mixtures in the presence of 10 μM unlabeled spiperone. Per well 45 μl of Microscint 40 (Perkin Elmer, Schwerzenbach, Switzerland) was added, plates for sealed, shaken for 20 min and counted for 3 min on a Topcount Microplate Scintillation Counter (Canberra Packard SA, Zürich, Switzerland) with quenching correction.
(§5) The CPM value for each duplicate of a concentration of competing compound was averaged (yl), then the % specific binding was calculated according to the equation (((yl-non-specific)/(total binding-non-specific))×100). Graphs were plotted with the % specific binding using XLfit, a curve fitting program that iteratively plots the data using Levenburg Marquardt algorithm. The single site competition analysis equation used was y=A+((B−A)/(1+((x/C)^D))), where y is the % specific binding, A is the minimum y, B is the maximum y, C is the IC50, x is the log10 of the concentration of the competing compound and D is the slope of the curve (the Hill Coefficient). […] The affinity constant (Ki) was calculated using the Cheng-Prusoff equation Ki=(IC50/1+([L]/Kd), where [L] is the concentration of radioligand and Kd is the dissociation constant of the radioligand at the receptor as determined by the saturation isotherm.

Assay [2] deals with T2, human D2 dopamine receptor (Homo sapiens, UniProt P14416).
T2 construct: expressed in transfected cells; host or cells: HEK-293 EBNA cells, transient transfection; membrane preparation
T2 sequence (P14416 whole entry): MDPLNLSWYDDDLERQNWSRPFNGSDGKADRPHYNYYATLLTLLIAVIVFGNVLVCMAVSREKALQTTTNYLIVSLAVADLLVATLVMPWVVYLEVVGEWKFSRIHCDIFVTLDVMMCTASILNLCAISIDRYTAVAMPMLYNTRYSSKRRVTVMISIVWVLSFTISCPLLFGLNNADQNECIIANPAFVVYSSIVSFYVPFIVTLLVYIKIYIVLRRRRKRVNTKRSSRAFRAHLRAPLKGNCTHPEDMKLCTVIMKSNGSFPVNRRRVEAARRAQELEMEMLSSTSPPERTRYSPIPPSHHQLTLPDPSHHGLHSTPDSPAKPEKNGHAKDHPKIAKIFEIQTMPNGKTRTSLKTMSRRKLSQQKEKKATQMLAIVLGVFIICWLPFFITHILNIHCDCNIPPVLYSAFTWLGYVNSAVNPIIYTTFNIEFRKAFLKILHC
Nature of the assay: Radioligand binding ([3H]-spiperone) to cloned human D2 receptor, HEK-293 EBNA cell membranes. As to conditions: 0.7 nM [3H]-spiperone, 1 h at RT, Cheng-Prusoff. Here is the method:
as §1
as §2, with “HEK-293 EBNA cells were transiently transfected with expression plasmids encoding for the human D2 or D3 dopamine- or for the human 5-HT2A serotonin receptor, respectively. The cells” for “The cells”
as §3, §4
(§6) The binding affinity (Ki) of the compounds was determined using radioligand binding. Membranes were incubated in a total volume of 200 μl with a fixed concentration of radioligand (final concentration approximately 0.7 nM [^3H]-spiperone for D2, 0.5 nM [^3H]-spiperone for D3, and 1.1 nM [^3H]-ketanserin for 5-HT2A) and ten concentrations of test compound in ranging between 10 μM-0.1 nM for 1 h at RT. At the end of the incubation, the reaction mixtures were filtered on to unifilter 96-well white microplates with bonded GF/C filters (Packard BioScience, Zürich, Switzerland; preincubated for 1 h in 0.1% polyethylenimine (PEI) in assay buffer) with a Filtermate 196 harvester (Packard BioScience) and washed 3 times with cold assay buffer. The nonspecific binding was determined with equally composed reaction mixtures in the presence of 10 μM unlabeled spiperone. Per well 45 μl of Microscint 40 (Perkin Elmer, Schwerzenbach, Switzerland) was added, plates for sealed, shaken for 20 min and counted for 3 min on a Topcount Microplate Scintillation Counter (Canberra Packard SA, Zürich, Switzerland) with quenching correction.
as §5

Assay [3] has as its target T3, human D3 dopamine receptor (Homo sapiens, UniProt P35462).
T3 construct: expressed in transfected cells; host or cells: HEK-293 EBNA cells, transient transfection; membrane preparation
As to the kind of experiment: Radioligand binding ([3H]-spiperone) to cloned human D3 receptor, HEK-293 EBNA cell membranes. As to conditions: 0.5 nM [3H]-spiperone, 1 h at RT, Cheng-Prusoff. As to the method:
The ability of the compounds to bind to the 5-HT2A, D3 and D2 receptors was determined using radioligand binding to cloned receptors selectively expressed in HEK-293 EBNA cells.
as §1
as §2, with “HEK-293 EBNA cells were transiently transfected with expression plasmids encoding for the human D2 or D3 dopamine- or for the human 5-HT2A serotonin receptor, respectively. The cells” for “The cells”
as §3, §4, §6, §5

T3 sequence (P35462 whole entry): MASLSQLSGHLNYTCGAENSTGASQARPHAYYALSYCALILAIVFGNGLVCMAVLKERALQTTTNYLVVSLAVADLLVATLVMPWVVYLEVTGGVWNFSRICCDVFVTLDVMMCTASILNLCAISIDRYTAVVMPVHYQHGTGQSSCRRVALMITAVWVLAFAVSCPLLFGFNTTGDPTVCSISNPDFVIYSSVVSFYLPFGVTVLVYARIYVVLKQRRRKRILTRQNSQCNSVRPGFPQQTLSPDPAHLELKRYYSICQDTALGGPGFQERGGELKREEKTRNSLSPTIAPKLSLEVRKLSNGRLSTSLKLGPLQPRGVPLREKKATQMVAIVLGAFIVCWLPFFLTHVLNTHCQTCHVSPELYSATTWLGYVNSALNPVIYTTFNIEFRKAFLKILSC
T1 sequence (P28223 whole entry): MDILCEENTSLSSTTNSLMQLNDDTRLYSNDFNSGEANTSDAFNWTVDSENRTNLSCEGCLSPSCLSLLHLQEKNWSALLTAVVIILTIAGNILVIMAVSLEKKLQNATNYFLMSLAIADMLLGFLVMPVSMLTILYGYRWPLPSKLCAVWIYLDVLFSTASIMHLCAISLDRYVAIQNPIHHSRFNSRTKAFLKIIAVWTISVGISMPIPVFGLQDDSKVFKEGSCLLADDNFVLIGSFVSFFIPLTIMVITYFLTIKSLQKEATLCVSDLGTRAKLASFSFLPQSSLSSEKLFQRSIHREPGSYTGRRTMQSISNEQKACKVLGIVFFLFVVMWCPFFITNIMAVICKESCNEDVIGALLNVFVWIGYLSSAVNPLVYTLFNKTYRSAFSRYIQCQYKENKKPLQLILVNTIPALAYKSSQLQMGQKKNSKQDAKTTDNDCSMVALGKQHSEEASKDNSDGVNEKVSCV

One may read the Ki as a dissociation constant, usually derived from enzyme kinetics or from competition with a known ligand. As for `CO[C@H]1CC[C@@H](CC(=O)N[C@H]2CC[C@H](CCN3CCC(C(=O)c4ccc(F)cc4)CC3)CC2)CC1` [Example 2, N-trans (4-{2-[4-(4-Fluoro-benzoyl)-piperidin-1-yl]-ethyl}-cyclohexyl)-2-cis (4-methoxy-cyclohexyl)-acetamide], the inhibitory constant (Ki) is 6 nM in assay [1], 1510 nM in assay [2] and 28 nM in assay [3].
For `CO[C@H]1CC[C@H](CC(=O)N[C@H]2CC[C@H](CCN3CCC(C(=O)c4ccc(F)cc4)CC3)CC2)CC1` [Example 3, N-trans (4-{2-[4-(4-Fluoro-benzoyl)-piperidin-1-yl]-ethyl}-cyclohexyl)-2-trans (4-methoxy-cyclohexyl)-acetamide], the Ki came out at 6 nM in assay [1], 1280 nM in assay [2] and 24 nM in assay [3].
Taken in the same sequence, the figures for `O=C(CC1CCC2(CC1)OCCO2)N[C@H]1CC[C@H](CCN2CCC(C(=O)c3ccc(F)cc3)CC2)CC1` [Example 12, 2-(1,4-Dioxa-spiro[4.5]dec-8-yl)-N-trans (4-{2-[4-(4-fluoro-benzoyl)-piperidin-1-yl]-ethyl}-cyclohexyl)-acetamide] were 6 nM, 1740 nM and 24 nM.
`CCO[C@H]1CC[C@H](CC(=O)N[C@H]2CC[C@H](CCN3CCC(C(=O)c4ccc(F)cc4)CC3)CC2)CC1` [Example 13, Trans-2-(4-Ethoxy-cyclohexyl)-N-trans (4-{2-[4-(4-fluoro-benzoyl)-piperidin-1-yl]-ethyl}-cyclohexyl)-acetamide]: the results for the Ki in assay [1], in assay [2] and in assay [3] were 13 nM, 1400 nM and 33 nM, respectively.
Turning to `COC[C@H]1CC[C@H](CC(=O)N[C@H]2CC[C@H](CCN3CCC(C(=O)c4ccc(F)cc4)CC3)CC2)CC1` [Example 21, N-trans (4-{2-[4-(4-Fluoro-benzoyl)-piperidin-1-yl]-ethyl}-cyclohexyl)-2-trans (4-methoxymethyl-cyclohexyl)-acetamide], the Ki in assay [1] stood at 5 nM; in assay [2], 1010 nM; in assay [3], 25 nM.
As for `COC[C@H]1C[C@H](CC(=O)N[C@H]2CC[C@H](CCN3CCC(C(=O)c4ccc(F)cc4)CC3)CC2)C1` [Example 25, N-trans (4-{2-[4-(4-Fluoro-benzoyl)-piperidin-1-yl]-ethyl}-cyclohexyl)-2-trans (3-methoxymethyl-cyclobutyl)-acetamide], the Ki in assay [1] was determined as 9 nM; in assay [2], 1860 nM; in assay [3], 27 nM.
Taken in the same sequence, the figures for `COC[C@H]1C[C@@H](CC(=O)N[C@H]2CC[C@H](CCN3CCC(C(=O)c4ccc(F)cc4)CC3)CC2)C1` [Example 26, N-trans (4-{2-[4-(4-Fluoro-benzoyl)-piperidin-1-yl]-ethyl}-cyclohexyl)-2-cis (3-methoxymethyl-cyclobutyl)-acetamide] were 6 nM, 2030 nM and 26 nM.
In the case of `CC(=O)N[C@H]1CC[C@H](CC(=O)N[C@H]2CC[C@H](CCN3CCC(C(=O)c4ccc(F)cc4)CC3)CC2)CC1` [Example 27, 2-trans (4-Acetylamino-cyclohexyl)-N-trans-(4-{2-[4-(4-fluoro-benzoyl)-piperidin-1-yl]-ethyl}-cyclohexyl)-acetamide], the Ki came out at 34 nM in assay [1], 2070 nM in assay [2] and 44 nM in assay [3].
